Results reported in patent US20040077611A1, “Triple therapy of angiotensin converting enzyme inhibitor epoxy-steroidal aldosterone antagonist and diuretic or digoxin for treatment of cardiovascular disease” (G.D. Searle & Co., priority 1999, published 2004).
Values after ≈ are worked out from the molar mass of the structure shown. Like-named read-outs stand apart in the source and are kept apart here.

Columns and labels:
[1] = Dissolution rate of unformulated solid state forms of eplerenone; format: physicochemical; details: temperatures below the enantiotropic transition temperature
[2] = Physical stability of solid state forms of eplerenone; format: physicochemical; details: temperatures below the enantiotropic transition temperature
[3] = test system: patients with severe HF (NYHA Class IV); details: cited from earlier work
[4] = Solubility of eplerenone in crystallization solvents; format: physicochemical; details: organic crystallization solvent or mixture of solvents, room temperature
[5] = test system: patients with stable NYHA Class II-IV heart failure; assay: Clinical trial of eplerenone added to ACE inhibitor and loop diuretic in heart failure (Biological Evaluation I); details: for plasma renin activity (PRA): 12 weeks of treatment, FIG. 28
[6] = test system: patients with stable NYHA Class II-IV heart failure; details: human, in vivo
humans = assay: Effects of eplerenone pharmaceutical compositions in humans after oral administration; format: in vivo
[7] = test system: patients alive at Day 3 with Killip class >I; details: patients randomized to lisinopril; ACE-I treatment stopped at 42 days; cited from earlier work
[8] = test system: patients with clinical evidence of HF at any time after an AMI; details: cited from earlier work; for risk reduction in all cause mortality: compared to placebo (p=0.002)
[9] = test system: patients with impaired ejection fraction post AMI; details: cited from earlier work
[10] = test system: patients with severe HF (NYHA Class III or IV); details: cited from earlier work
[11] = test system: patients afflicted with congestive heart failure; details: cited from earlier work
[12] = test system: myocardial fibrosis in animal models; details: cited from earlier work
[13] = test system: patients with LV dysfunction 2 to 6 days following MI; details: cited from earlier work
[14] = humans, over about 12 to 24 hours after ingestion of the composition

COC(=O)[C@@H]1CC2=CC(=O)CC[C@]2(C)[C@@]23O[C@@H]2C[C@@]2(C)[C@@H](CC[C@@]24CCC(=O)O4)[C@H]13 [Form H]
dissolution rate relative to unformulated Form L [1]: approximately 30%

COC(=O)[C@@H]1CC2=CC(=O)CC[C@]2(C)[C@@]23O[C@@H]2C[C@@]2(C)[C@@H](CC[C@@]24CCC(=O)O4)[C@H]13 [Form L]
physical stability relative to Form H [2]: greater physical stability

CCOC(=O)[C@H](CCc1ccccc1)N[C@@H](C)C(=O)N1CCC[C@H]1C(=O)O [enalapril]
reduction of mortality at one year ([3]; enalapril plus diuretics compared to placebo plus diuretics): 31% | mortality ([3]; group with baseline aldosterone plasma levels above the median): reduced | mortality ([3]; group with baseline aldosterone plasma levels below the median): no difference from placebo

COC(=O)[C@@H]1CC2=CC(=O)CC[C@]2(C)[C@@]23O[C@@H]2C[C@@]2(C)[C@@H](CC[C@@]24CCC(=O)O4)[C@H]13 [eplerenone, Pregn-4-ene-7,21-dicarboxylic acid, 9,11-epoxy-17-hydroxy-3-oxo-, γ-lactone, methyl ester, (7^α, 11^α, 17^α)-]
solubility [4]: 5 to 200 mg/mL (≈ 12.1 to 483 mM) | plasma renin activity (PRA) [5]: significantly elevated | reduction in BNP ([5]; eplerenone at 25 mg and 100 mg, all patients, FIG. 29): highly significant | urinary aldosterone excretion, increase from baseline ([5]; eplerenone doses of 50 and 100 mg, 12 week visit): Greater increases | testosterone levels [6]: lack of effect | average decrease in diasystolic blood pressure (humans; [14]): at least 5% | average increase in blood serum aldosterone concentrations (humans; [14]): at least 50% | average increase in blood serum renin concentration (humans; [14]): at least 10% | urinary log10 (sodium/potassium) ratio (humans; [14]): increase | efficacy of the required daily dosage, once-a-day relative to twice-a-day administration (humans; in vivo): does not appear to materially differ

NCCCC[C@H](N[C@@H](CCc1ccccc1)C(=O)O)C(=O)N1CCC[C@H]1C(=O)O [lisinopril]
first-year mortality [7]: 22%

CCOC(=O)[C@H](CCc1ccccc1)N[C@@H](C)C(=O)N1[C@H](C(=O)O)C[C@@H]2CCC[C@@H]21 [ramipril]
risk reduction in all cause mortality ([8]; AIRE): 27% | reduction in the risk of developing severe resistant HF ([8]; AIRE, compared to placebo (p=0.017)): 23% | risk reduction in all cause mortality ([8]; AIREX long-term (three year) follow-up): 36% | ventricular dilatation and systolic dysfunction [9]: prevented ventricular dilatation and further decline of systolic dysfunction

CC(=O)S[C@@H]1CC2=CC(=O)CC[C@]2(C)[C@H]2CC[C@@]3(C)[C@@H](CC[C@@]34CCC(=O)O4)[C@H]12 [spironolactone]
reduction in mortality compared to placebo ([10]; as restated): > 30% | median increase in serum potassium concentration ([10]; compared to patients treated with placebo): statistically but not clinically significant | risk reduction for all cause mortality ([10]; spironolactone 25 mg daily added to standard therapy vs standard therapy plus placebo (p<0.001)): 30% | lower frequency of hospitalization for worsening HF ([10]; vs placebo patients): 35% | plasma renin activity (PRA) [5]: significantly elevated | testosterone levels ([5]; males): significant increase | clinical outcome ([11]; co-therapy of spironolactone and enalapril): Clinical improvements | patients in whom co-therapy was highly effective ([11]; spironolactone coadministered with an ACE inhibitor): 13 of 16 | ventricular dilatation and systolic dysfunction [9]: prevented ventricular dilatation and further decline of systolic dysfunction | myocardial fibrosis ([12]; Klug et al): prevents myocardial fibrosis | fibrosis ([12]; irrespective of the development of left ventricular hypertrophy and the presence of hypertension, Brilla et al): prevent fibrosis

CCOC(=O)[C@H](CCc1ccccc1)N[C@@H](C)C(=O)N1[C@H](C(=O)O)C[C@H]2CCCC[C@@H]21 [trandolapril]
relative reduction in the risk of death ([13]; compared to placebo (p=0.001)): 18% | reduction in the risk of progression to severe HF ([13]; compared to placebo (p=0.003)): 29%
